Data on 16 molecules can be found in PubChem BioAssay (NCI).

Molecules are shown by their SMILES. Values joined by “and” are separate entries in the source; they are usually repeats but may differ in a detail not shown here. Identical values can stand only once.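 Interpolation was linear, between the two tested concentrations surrounding the appropriate level; five concentrations were tested over 48 hours in 96-well plates. GI50 marks 50% less growth. Definition used: TGI = concentration required for complete inhibition of growth.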 Some results are limits rather than exact numbers.

Common to all, as to assay: DTP human tumour cell line panel, 48 h
Assay [1] relates to CCRF-CEM leukemia.
Assay [2] relates to T-47D breast.
Assay [3] concerns COLO 205 colon.
The test system of assay [4] is KM12 colon.
Assay [5] deals with M14 melanoma.
The subject of assay [6] is MCF7 breast.
Assay [7] relates to UACC-257 melanoma.
Assay [8] relates to NCI-H460 lung.
Assay [9] relates to NCI-H522 lung.
The test system of assay [10] is HOP-92 NSCLC.

By GI50 is commonly meant the concentration giving 50% growth inhibition. Broadly, the TGI is the concentration giving total growth inhibition. Lower therefore signals more potent growth arrest. Regarding `COc1ccc(NC(=O)COCCOCCNC[C@@H]2C(=O)O[C@H]3[C@H]2CC/C(COC(=O)OC/C2=C/CC[C@@]4(C)O[C@H]4[C@H]4OC(=O)[C@@H](CN(C)C)[C@@H]4CC2)=C\CC[C@@]2(C)O[C@@H]32)c(O)c1C(N)=O`, the GI50 in assay [1] was 1.21 µM; in assay [2] it was 1.71 µM; in assay [3], 1.06 µM; in assay [4], 9.72 µM; in [5], 7.22 µM; in [6] it was 1.63 µM. For the same molecule, the GI50 in assay [7] is 6.1 µM; in [8] it was 16.5 µM; in [9] it was 0.888 µM; in assay [10], 1.71 µM. Further, the TGI is 3.27 µM in assay [1]; 10.4 µM in [2]; 2.52 µM in assay [3]; 22.5 µM in assay [4]; 15.5 µM in [5]; 9.01 µM in [6]. The TGI was 13.2 µM in [7], over 50 µM in [8], 1.88 µM in assay [9] and 6.93 µM in assay [10].
Take `COc1cc(-n2cc(-c3ccc(Cl)cc3)nc2SCc2cccc(C#N)c2)cc(OC)c1OC`: the GI50 is over 100 µM in assay [1]; 21.4 µM in assay [2]; over 100 µM in [3]; over 100 µM in assay [4]; over 100 µM in assay [5]; 51.3 µM in assay [6]. The GI50 is 95.5 µM in [8], 47 µM in assay [9] and 18.8 µM in assay [10]. Further, the TGI in assay [1], in assay [2], in [3], in assay [4], in assay [5] and in assay [6] was over 100 µM throughout. Besides, the TGI in [8] was over 100 µM; in assay [9], over 100 µM; in assay [10], 86.5 µM.
`Cc1cc(Cc2cc(C)cc(C(C)(C)C)c2O)c(O)c(Cc2cc(C)cc(C(C)(C)C)c2O)c1`: the TGI in assay [1] was found to be 8.31 µM; in [2], 11.3 µM; in [3] it was 9.17 µM; in assay [4], 10 µM; in [5] it was 7.26 µM; in assay [6], 7.93 µM. Moreover, the TGI in assay [7] was determined as 5.3 µM; in assay [8], 4.22 µM; in [9] it was 4.28 µM; in [10], 9.36 µM.
Take `CCN1Cc2c(ccc(F)c2C#N)O[C@@H](C)CNC(=O)c2c(N)nn3ccc1nc23`: the GI50 is 3.74 µM in assay [1]; 2.78 µM in assay [2]; 0.815 µM in [3]; 0.678 µM in [5]; 3.23 µM in assay [6]; 2.63 µM in assay [7]. The values for the GI50 in assay [8], in assay [9] and in assay [10] were 2.42 µM, 5.04 µM and 0.479 µM, respectively. Besides, the concentration for total growth inhibition (TGI) was over 100 µM in assay [1]; 56.3 µM in assay [2]; 3.74 µM in [3]; 69.7 µM in [4]; 11.1 µM in assay [5]; 31.1 µM in [6]. The TGI in [7] was 16.7 µM; in assay [8], 28.9 µM; in assay [9], 41.3 µM; in assay [10] it was 3.65 µM.
As for `CC(NCCC(=O)N(CCC(=O)N(CCC(=O)N(CCC(=O)N(CCC(=O)N(CCC(=O)N(CCC(=O)N(CCC(=O)N(CCC(=O)N(CCC(=O)O)[C@H](C)c1ccccc1)[C@H](C)c1ccccc1)[C@H](C)c1ccccc1)[C@H](C)c1ccccc1)[C@H](C)c1ccccc1)[C@H](C)c1ccccc1)[C@H](C)c1ccccc1)[C@H](C)c1ccccc1)[C@H](C)c1ccccc1)c1ccccc1` (some centres not stated), the GI50 is 1.89 µM in [1]; 3.42 µM in [2]; 1.43 µM in [3]; 1.76 µM in [4]; 1.77 µM in assay [5]; 2.03 µM in [6]. In addition, the GI50 in assay [7] was 1.76 µM; in assay [8] it was 2.05 µM; in assay [9], 2.12 µM; in assay [10], 0.753 µM. The TGI in [1] was over 19.5 µM; in [2], over 75 µM; in [3] it was 2.83 µM; in assay [4], 4.9 µM; in assay [5] it was 5.49 µM; in [6] it was over 26.1 µM. For the same molecule, the TGI in assay [7] was determined as 4.15 µM; in [8], 6.64 µM; in assay [9], 24.5 µM; in assay [10] it was 2.34 µM.
For `O=C(O)c1cc(-c2ccncc2)nc2ccccc12`, the TGI in assay [2], in assay [3], in assay [4], in [5], in [6] and in assay [7] was over 100 µM throughout. Further, the TGI in assay [8], in [9] and in [10] was over 100 µM in each case.
For `Oc1ccccc1C=Nc1nc(SCc2ccccc2)nc2[nH]ncc12`, the GI50 in assay [1] is 45.7 µM; in [2], 26.7 µM; in assay [3], 29.1 µM; in [4], 37.5 µM; in [5] it was 38.4 µM; in assay [6], 39.1 µM. Further, the GI50 in assay [7] is 52.3 µM; in [8], 36.9 µM; in [9], 50.9 µM; in assay [10] it was 12.4 µM. Besides, the TGI is over 100 µM in [1]; 70.2 µM in assay [2]; over 100 µM in assay [3]; over 100 µM in [4]; over 100 µM in assay [5]; over 100 µM in assay [6]. In addition, the TGI is over 100 µM in assay [7], over 100 µM in assay [8], over 100 µM in [9] and 71.1 µM in assay [10].
As to `Cc1ccc2c(c1)C(C)Cc1c(Cl)ncnc1N2C` (configuration not stated), the GI50 in assay [1] is 3.82 µM; in [2] it was 6.9 µM; in [3], 2.11 µM; in [4] it was 2.12 µM; in assay [5], 2.77 µM; in assay [6], 2.96 µM. Moreover, the GI50 was 4.29 µM in assay [7], 3.66 µM in assay [8], 2.67 µM in assay [9] and 2.92 µM in assay [10]. Further, the TGI is over 100 µM in assay [1]; 65 µM in assay [2]; 4.62 µM in assay [3]; 7.98 µM in assay [4]; 22.9 µM in [5]; 11.7 µM in [6]. Also, the TGI in assay [7] amounted to 46.2 µM; in assay [8] it was 91 µM; in [9] it was 8.03 µM; in assay [10], 8.5 µM.
On to `Nc1nc(N)c2c(n1)NC(c1ccc(F)cc1)C1CCc3ccccc3C1=N2` (configuration not stated), for which the GI50 is 3.86 µM in assay [2]; 1.62 µM in assay [3]; 4.93 µM in assay [4]; 5.51 µM in assay [5]; 2.67 µM in assay [6]; 5.37 µM in assay [7]. The GI50 in assay [8] is 3.76 µM; in assay [9], 5.66 µM; in [10], 1.17 µM. The TGI in assay [2] was 17.7 µM; in assay [3], 3.61 µM; in assay [4], 17 µM; in assay [5], 18.7 µM; in [6] it was 11 µM; in assay [7], 17.8 µM. In addition, the TGI in [8] is 13.6 µM; in assay [9] it was 21.2 µM; in [10] it was 6.59 µM.
Turning to `O=c1[nH]c(=O)c2cc(C3CC(O)C(CO)O3)ccc2[nH]1` (configuration not stated), the GI50 in [1], in [2], in [3], in assay [5], in assay [6] and in assay [7] was over 100 µM each time. The GI50 in assay [8], in [9] and in assay [10] was over 100 µM each time. The TGI in assay [1], in assay [2], in assay [3], in assay [5], in [6] and in [7] was over 100 µM each time. In addition, the TGI in assay [8], in assay [9] and in assay [10] was over 100 µM in each case.
For the molecule `O=C(Nc1ccc2[nH]c(=S)sc2c1)Nc1ccccc1F`, the GI50 is 26.7 µM in [1]; 4.47 µM in assay [2]; 24.5 µM in assay [3]; 24.7 µM in assay [4]; 42.4 µM in assay [5]; 36.7 µM in assay [6]. Moreover, the GI50 was 73.5 µM in assay [7], 38 µM in assay [8] and 10.3 µM in [9]. Also, the TGI in assay [1] was over 100 µM; in assay [2] it was 33.4 µM; in [3] it was 65.4 µM; in [4], over 100 µM; in [5], over 100 µM; in assay [6], over 100 µM. Further, the TGI in assay [7] was over 100 µM; in [8], over 100 µM; in assay [9], 38.4 µM.
Regarding `COC(=O)C1CCCN1C(=O)[C@@H]1CCCN1C(=O)[C@H](Cc1c[nH]c2ccccc12)NC(=S)Nc1cc(C(F)(F)F)cc(C(F)(F)F)c1` (some centres not stated), the GI50 in assay [1] was 2.75 µM; in [2] it was 1.98 µM; in [3], 1.72 µM; in [4] it was 1.92 µM; in assay [5] it was 2.19 µM; in assay [6], 2.19 µM. In addition, the GI50 in [7] was 2.4 µM; in assay [8], 1.94 µM; in assay [9], 2.15 µM. Further, the TGI was 8.55 µM in assay [1]; 7.2 µM in assay [2]; 3.21 µM in [3]; 4.03 µM in [4]; 5.23 µM in assay [5]; 6 µM in assay [6]. The TGI in [7] is 8.17 µM; in [8], 3.79 µM; in assay [9] it was 4.99 µM.
As to `OC(CNCC1CCCO1)Cn1c2ccc(Cl)cc2c2cc(Cl)ccc21` (configuration not stated), the GI50 in assay [1] was 2.28 µM; in assay [2], 1.91 µM; in [3], 1.92 µM; in assay [4], 1.81 µM; in assay [6], 1.72 µM; in assay [7] it was 1.64 µM. The values for the GI50 in assay [8], in assay [9] and in assay [10] were 1.95 µM, 1.89 µM and 2.15 µM, respectively. The TGI in assay [1] is 4.99 µM; in assay [2], 3.89 µM; in [3], 3.61 µM; in [4], 3.27 µM; in assay [6] it was 3.25 µM; in assay [7] it was 3.13 µM. The TGI in assay [8] is 3.75 µM; in [9], 3.6 µM; in assay [10], 6.24 µM.
Regarding `CNC(=O)CC1NC(=O)c2csc(n2)-c2ccc(-c3nc(C4=NC(C(=O)N5CCCC5C(N)=O)CO4)cs3)nc2-c2csc(n2)-c2csc(n2)C(C(C)C)NC(=O)CNC(=O)c2csc(n2)C(C(C)C)NC(=O)c2nc1sc2C` (configuration not stated), the GI50 was over 25 µM in assay [1]; over 25 µM in [2]; over 25 µM in assay [3]; over 25 µM in assay [4]; under 0.001 µM in [6]; over 25 µM in [7]. The GI50 in assay [8] and in assay [10] was over 25 µM in each case. In addition, the TGI in assay [1] is over 25 µM; in assay [2], over 25 µM; in [4], 4.34 µM and > 25 µM; in assay [7], over 25 µM; in [8], over 25 µM; in [10] it was over 25 µM.
Turning to `CCC[CH2][Sn]([CH2]CCC)([CH2]CCC)[O]C(=O)c1ccc(Cl)cc1Cl`, the GI50 in [2] is 0.138 µM; in assay [3] it was 0.183 µM; in assay [4], 0.139 µM; in assay [5], 0.147 µM; in assay [6], 0.137 µM; in [7], 0.155 µM. For the same molecule, the values for the GI50 in assay [8], in [9] and in assay [10] were 0.143 µM, 0.0784 µM and 0.102 µM, respectively. Further, the TGI was found to be 0.289 µM in assay [2]; 0.375 µM in assay [3]; 0.283 µM in assay [4]; 0.29 µM in assay [5]; 0.278 µM in assay [6]; 0.313 µM in assay [7]. In addition, the TGI in [8] was determined as 0.299 µM; in [9] it was 0.251 µM; in assay [10], 0.301 µM.
With `O=C(O)C1C(C(=O)O)C23CC2(C(=O)O)C2(C(=O)O)CCC3=C3CCCC312` (configuration not stated), the TGI in [2] is 53.5 µM; in assay [3], 16.8 µM; in assay [4], 88.4 µM; in assay [5] it was over 100 µM; in assay [6], 63.3 µM; in assay [7] it was 15.4 µM. The figures for the TGI in [8], in [9] and in [10] were 20 µM, 16 µM and 36.5 µM, respectively.
